Assay results as given in ChEMBL document CHEMBL5500391, “Systematic Structural Modification of Squaraine Dye for Near-Infrared Window One and Two Multiplexed In Vivo Imaging and Photothermal Therapy” (J Med Chem, 2024).
The source made the active and inactive calls. No cut-off for these calls is given here.

Columns and labels:
[1] = Drug uptake in mouse Lymph node at 769/48nm long pass by fluorescence imaging based analysis; format: ADME, tissue-based; conditions: in vivo
[2] = Toxicity in BALB/c mouse assessed as effect on kidney at 6.84 ug, IG pretreated with compound for 2 hrs followed by laser irradiation at 808nm 1.0 W/cm2 for 5 mins and measured after 14 days by H and E staining based analysis; format: tissue-based; conditions: in vivo, po, 336 h, dose 6.84 µg, time 14 day
[3] = Toxicity in BALB/c mouse assessed as AST level in serum measured after 7 to 14 days by biochemical analysis; conditions: time 7-14 day
[4] = Toxicity in BALB/c mouse assessed as effect on heart measured after 24 hrs by real-time NIR-II fluorescence imaging analysis; format: tissue-based; conditions: in vivo
[5] = Toxicity in BALB/c mouse assessed as effect on body weight at 6.84 ug, IG measured every two days for 14 days; conditions: in vivo, po, 336 h, dose 6.84 µg, time 14 day
[6] = Toxicity in BALB/c mouse assessed as effect on lung at 6.84 ug, IG pretreated with compound for 2 hrs followed by laser irradiation at 808nm 1.0 W/cm2 for 5 mins and measured after 14 days by H and E staining based analysis; format: tissue-based; conditions: in vivo, po, 336 h, dose 6.84 µg, time 14 day
[7] = Toxicity in BALB/c mouse assessed as effect on heart at 6.84 ug, IG pretreated with compound for 2 hrs followed by laser irradiation at 808nm 1.0 W/cm2 for 5 mins and measured after 14 days by H and E staining based analysis; format: tissue-based; conditions: in vivo, po, 336 h, dose 6.84 µg, time 14 day
[8] = Drug excretion in Balb/c mouse liver administered as iv dose measured after 12 hrs by NIR-II fluorescence imaging analysis; format: ADME, organism-based; conditions: in vivo
4T1 [9] = experiment: Antitumor activity against mouse 4T1 cells xenografted in BALB/c mouse model assessed as increase in tumor temperature at 6.84 ug, IG pretreated with compound for 2 hrs followed by laser irradiation at 808nm 1.0 W/cm2 for 5 mins (reference value: 34 degreeC); format: functional; conditions: dose 6.84 µg, time 125 min, 2.083 h
[10] = Drug metabolism in Balb/c mouse liver administered as iv dose by NIR-II fluorescence imaging analysis; format: ADME, organism-based; conditions: in vivo
[11] = Toxicity in BALB/c mouse assessed as effect on tumor at 6.84 ug, IG measured after 14 days by H and E staining based analysis; conditions: in vivo, po, 336 h, dose 6.84 µg, time 14 day
[12] = Toxicity in BALB/c mouse assessed as effect on kidney measured after 24 hrs by real-time NIR-II fluorescence imaging analysis; format: tissue-based; conditions: in vivo
[13] = Toxicity in BALB/c mouse assessed as effect on heart at 6.84 ug, IG measured after 14 days by H and E staining based analysis; format: tissue-based; conditions: in vivo, po, 336 h, dose 6.84 µg, time 14 day
[14] = Toxicity in BALB/c mouse assessed as creatinine level in serum measured after 7 to 14 days by biochemical analysis; conditions: time 7-14 day
[15] = Toxicity in BALB/c mouse assessed as effect on tumor at 6.84 ug, IG pretreated with compound for 2 hrs followed by laser irradiation at 808nm 1.0 W/cm2 for 5 mins and measured after 14 days by H and E staining based analysis; conditions: in vivo, po, 336 h, dose 6.84 µg, time 14 day
4T1 [16] = experiment: Cytotoxicity in mouse 4T1 cells assessed as increase in red fluorescence at 100 uM incubated for 12 hrs followed by 808nm laser irradiation for 5 mins and measured after 12 hrs by Calcein-AM and PI staining based fluorescence microscopy analysis; format: functional, cell-based; conditions: time 1445.0 min
4T1 [17] = experiment: Cytotoxicity in mouse 4T1 cells assessed as decrease in cell survival at 75 uM incubated for 24 hrs under laser irradiation by CCK-8 method; format: functional, cell-based
[18] = Toxicity in BALB/c mouse assessed as effect on kidney at 6.84 ug, IG measured after 14 days by H and E staining based analysis; format: tissue-based; conditions: in vivo, po, 336 h, dose 6.84 µg, time 14 day
4T1 [19] = experiment: Antitumor activity against mouse 4T1 cells xenografted in BALB/c mouse model assessed as suppression of tumor at 6.84 ug, IG pretreated with compound for 2 hrs followed by laser irradiation at 808nm 1.0 W/cm2 for 5 mins and measured every two days for 14 days by vernier caliper analysis; format: functional; conditions: dose 6.84 µg, time 14.0 day
4T1 [20] = experiment: Antitumor activity against mouse 4T1 cells xenografted in BALB/c mouse model assessed as induction of apoptosis at 6.84 ug, IG pretreated with compound for 2 hrs followed by laser irradiation at 808nm 1.0 W/cm2 for 5 mins and measured every two days for 14 days by TUNEL assay; format: functional; conditions: dose 6.84 µg, time 14.0 day
[21] = Toxicity in BALB/c mouse assessed as effect on liver at 6.84 ug, IG measured after 14 days by H and E staining based analysis; format: tissue-based; conditions: in vivo, po, 336 h, dose 6.84 µg, time 14 day
4T1 [22] = experiment: Cytotoxicity in mouse 4T1 cells assessed as increase in red fluorescence at 100 uM incubated for 12 hrs by Calcein-AM and PI staining based fluorescence microscopy analysis; format: functional, cell-based
[23] = Toxicity in BALB/c mouse assessed as effect on lung measured after 24 hrs by real-time NIR-II fluorescence imaging analysis; format: tissue-based; conditions: in vivo
[24] = Toxicity in BALB/c mouse assessed as effect on spleen at 6.84 ug, IG pretreated with compound for 2 hrs followed by laser irradiation at 808nm 1.0 W/cm2 for 5 mins and measured after 14 days by H and E staining based analysis; format: tissue-based; conditions: in vivo, po, 336 h, dose 6.84 µg, time 14 day
4T1 [25] = experiment: Cytotoxicity in mouse 4T1 cells at upto 100 uM incubated for 24 hrs by CCK-8 method; format: functional, cell-based
[26] = Toxicity in BALB/c mouse assessed as effect on liver at 6.84 ug, IG pretreated with compound for 2 hrs followed by laser irradiation at 808nm 1.0 W/cm2 for 5 mins and measured after 14 days by H and E staining based analysis; format: tissue-based; conditions: in vivo, po, 336 h, dose 6.84 µg, time 14 day
[27] = Toxicity in BALB/c mouse assessed as effect on lung at 6.84 ug, IG measured after 14 days by H and E staining based analysis; format: tissue-based; conditions: in vivo, po, 336 h, dose 6.84 µg, time 14 day
[28] = Toxicity in BALB/c mouse assessed as effect on body weight at 6.84 ug, IG pretreated with compound for 2 hrs followed by laser irradiation at 808nm 1.0 W/cm2 for 5 mins and measured every two days for 14 days; conditions: in vivo, po, 336 h, dose 6.84 µg, time 14 day
[29] = Toxicity in BALB/c mouse assessed as ALT level in serum measured after 7 to 14 days by biochemical analysis; conditions: time 7-14 day
4T1 [30] = experiment: Induction of intracellular ROS generation in mouse 4T1 cells preincubated with compound followed by laser irradiation at 808nm 1.0 W/cm2 by DCFDA staining based analysis; format: functional, cell-based
[31] = Toxicity in BALB/c mouse assessed as effect on liver measured after 24 hrs by real-time NIR-II fluorescence imaging analysis; format: tissue-based; conditions: in vivo
[32] = Toxicity in BALB/c mouse assessed as ALB level in serum measured after 7 to 14 days by biochemical analysis; conditions: time 7-14 day
4T1 [33] = experiment: Antitumor activity against mouse 4T1 cells xenografted in BALB/c mouse model assessed as induction of apoptosis at 6.84 ug, IG measured every two days for 14 days by TUNEL assay; format: functional; conditions: dose 6.84 µg, time 14.0 day
NIH3T3 = experiment: Cytotoxicity in mouse 3T3 cells at upto 100 uM incubated for 24 hrs by CCK-8 method; format: toxicity, cell-based; conditions: nih3t3, 24 h
[34] = Toxicity in BALB/c mouse assessed as effect on spleen measured after 24 hrs by real-time NIR-II fluorescence imaging analysis; format: tissue-based; conditions: in vivo
[35] = Toxicity in BALB/c mouse assessed as UREA level in serum measured after 7 to 14 days by biochemical analysis; conditions: time 7-14 day
[36] = Toxicity in BALB/c mouse assessed as effect on spleen at 6.84 ug, IG measured after 14 days by H and E staining based analysis; format: tissue-based; conditions: in vivo, po, 336 h, dose 6.84 µg, time 14 day
[37] = Drug uptake in mouse 4T1 cells assessed as increase in fluorescence measured upto 12 hrs by NIR-II fluorescence microscopic analysis; format: ADME, cell-based; conditions: 4t1, 12 h
[38] = Drug uptake in mouse Lymph node at 655/24nm band pass by fluorescence imaging based analysis; format: ADME, tissue-based; conditions: in vivo
[39] = Drug uptake in mouse Lymph node at 1000 long pass by fluorescence imaging based analysis; format: ADME, tissue-based; conditions: in vivo

In the case of `CCN1/C(=C/C2=C([O-])C(=C/C3=[N+](CC)c4ccc5ccccc5c4C3(C)C)/C2=O)C(C)(C)c2c1ccc1ccccc21`, the Drug uptake [1] was “Active”.
In the case of `O=C1C(/C=c2\c3cccc4cccc(c43)n2CCCCS(=O)(=O)O)=C([O-])C/1=C/C1=[N+](CCCCS(=O)(=O)O)c2cccc3cccc1c23`, the Activity [2] was “Non-Toxic”, the Activity [3] was “Non-Toxic” and the Activity [4] was “Non-Toxic”. For the same compound, the Activity [5] was “Non-Toxic”, the Activity [6] was “Non-Toxic” and the Activity [7] was “Non-Toxic”. For the same compound, the Drug excretion [8] was “Active”, the T (4T1 [9]) was 54 °C and the Drug metabolism [10] was “Metabolite_Detected”. The Activity [11] was “Non-Toxic”, the Activity [12] was “Non-Toxic” and the Activity [13] was “Non-Toxic”. The Activity [14] was “Non-Toxic”, the Activity [15] was “Non-Toxic” and the Activity (4T1 [16]) was “Active”. For the same compound, the Activity (4T1 [17]) was “Active”, the Activity [18] was “Non-Toxic” and the Activity (4T1 [19]) was “Active”. The Activity (4T1 [20]) was “Active”, the Activity [21] was “Non-Toxic” and the Activity (4T1 [22]) was “inactive”. The Activity [23] was “Non-Toxic”, the Activity [24] was “Non-Toxic” and the Activity (4T1 [25]) was “inactive”. For the same compound, the Activity [26] was “Non-Toxic”, the Activity [27] was “Non-Toxic” and the Activity [28] was “Non-Toxic”. For the same compound, the Activity [29] was “Non-Toxic”, the Activity (4T1 [30]) was “inactive” and the Activity [31] was “Non-Toxic”. The Activity [32] was “Non-Toxic”, the Activity (4T1 [33]) was “Active” and the Activity (NIH3T3) was “Non-Toxic”. For the same compound, the Activity [34] was “Non-Toxic”, the Activity [35] was “Non-Toxic” and the Activity [36] was “Non-Toxic”. The Drug uptake [37] was “Active”.
With `CCN1/C(=C/C2=C([O-])C(=C/C3=[N+](CC)c4ccccc4C3(C)C)/C2=O)C(C)(C)c2ccccc21` the Drug uptake [38] was “Active”.
For `CCn1/c(=C/C2=C([O-])C(=C/C3=[N+](CC)c4cccc5cccc3c45)/C2=O)c2cccc3cccc1c32`, the Drug uptake [39] was “Active”.
